In patent publication US11584747B2, “Substituted pyridopyrimidinonyl compounds useful as T cell activators” (BRISTOL-MYERS SQUIBB COMPANY, priority 2019, dated 2023):

Assays:
[1] = tested on: whole blood (pERK); assay: pERK Whole Blood; assay type: cell-based
[2] = biological target: human DGKζ (Homo sapiens (Human), UniProt Q13574); assay: DGKζ LIPGLO assay (extruded liposome substrate, ADP-Glo luminescence); assay type: biochemical; conditions: liposome (LIPGLO) assay; read-out: DGK zeta (liposome assay) IC50
Sequence of human DGKζ (Q13574 other isoform, or with tags, fused parts or gaps): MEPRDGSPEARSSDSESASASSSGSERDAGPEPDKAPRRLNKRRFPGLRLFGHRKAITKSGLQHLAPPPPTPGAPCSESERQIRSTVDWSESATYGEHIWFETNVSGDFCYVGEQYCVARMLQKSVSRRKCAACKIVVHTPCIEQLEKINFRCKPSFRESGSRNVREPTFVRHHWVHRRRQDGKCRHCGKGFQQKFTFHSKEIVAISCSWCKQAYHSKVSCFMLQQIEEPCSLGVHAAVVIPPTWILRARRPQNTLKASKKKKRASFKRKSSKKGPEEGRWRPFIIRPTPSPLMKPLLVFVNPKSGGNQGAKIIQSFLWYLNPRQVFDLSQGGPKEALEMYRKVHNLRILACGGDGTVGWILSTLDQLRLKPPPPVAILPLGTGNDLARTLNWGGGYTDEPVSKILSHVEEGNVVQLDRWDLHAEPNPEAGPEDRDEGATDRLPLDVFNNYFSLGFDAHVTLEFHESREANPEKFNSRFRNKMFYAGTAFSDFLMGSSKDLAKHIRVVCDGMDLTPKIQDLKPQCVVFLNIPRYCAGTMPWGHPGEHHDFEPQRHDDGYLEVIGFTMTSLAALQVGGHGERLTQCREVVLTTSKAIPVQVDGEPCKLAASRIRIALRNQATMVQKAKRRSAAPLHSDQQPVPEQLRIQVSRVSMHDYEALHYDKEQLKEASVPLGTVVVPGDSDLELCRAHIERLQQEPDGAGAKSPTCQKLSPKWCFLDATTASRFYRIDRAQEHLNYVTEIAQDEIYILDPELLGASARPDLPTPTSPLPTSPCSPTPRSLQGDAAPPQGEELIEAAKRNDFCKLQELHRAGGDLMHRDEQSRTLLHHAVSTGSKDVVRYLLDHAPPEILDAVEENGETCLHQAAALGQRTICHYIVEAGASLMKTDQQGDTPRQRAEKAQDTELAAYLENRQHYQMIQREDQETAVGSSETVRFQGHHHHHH

[3] = biological target: human DGKα (Homo sapiens (Human), UniProt P23743); assay: DGKα ADPGLO assay (detergent/lipid micelle substrate); assay type: biochemical; conditions: ADPGLO assay; read-out: DGK alpha ADPGLO IC50
Sequence of human DGKα (P23743 whole entry, looked up, the tested form may be a part): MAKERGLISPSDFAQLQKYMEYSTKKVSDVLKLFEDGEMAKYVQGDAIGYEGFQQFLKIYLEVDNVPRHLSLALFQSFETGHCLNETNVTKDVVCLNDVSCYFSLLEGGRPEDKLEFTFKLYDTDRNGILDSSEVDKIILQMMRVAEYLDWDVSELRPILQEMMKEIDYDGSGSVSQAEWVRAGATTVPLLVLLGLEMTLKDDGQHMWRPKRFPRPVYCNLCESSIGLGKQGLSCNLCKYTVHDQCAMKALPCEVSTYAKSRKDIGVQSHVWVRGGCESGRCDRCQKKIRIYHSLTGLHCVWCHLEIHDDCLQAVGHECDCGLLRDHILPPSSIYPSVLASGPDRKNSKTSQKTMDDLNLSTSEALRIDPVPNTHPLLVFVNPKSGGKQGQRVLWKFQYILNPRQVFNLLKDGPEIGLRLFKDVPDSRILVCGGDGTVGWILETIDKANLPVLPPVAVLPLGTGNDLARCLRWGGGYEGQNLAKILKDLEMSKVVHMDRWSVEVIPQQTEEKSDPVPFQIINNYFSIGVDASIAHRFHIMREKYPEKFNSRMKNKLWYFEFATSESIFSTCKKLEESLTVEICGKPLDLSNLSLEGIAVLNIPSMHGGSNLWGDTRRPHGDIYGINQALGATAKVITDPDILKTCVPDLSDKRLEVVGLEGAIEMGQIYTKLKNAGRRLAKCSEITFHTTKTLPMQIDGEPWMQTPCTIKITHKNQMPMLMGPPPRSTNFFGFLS
Description: DGK Alpha ADPGLO (Truncated) IC50 (uM)
The detergent/lipid micelle was prepared by combining 15 g phosphatidylserine (Avanti 840035P) and 1 g diacylglycerol (8008110) and dissolving into 150 mL chloroform in a 2 L round bottom flask. Chloroform was removed under high vacuum by rotary evaporation. […] The lipid/detergent solution was split into 5 mL aliquots and stored at −80° C.

| Compound | EC50 [1] [nM] | IC50 [2] [nM] | IC50 [3] [nM] |
| --- | --- | --- | --- |
| CCC(c1ccc(OCCC(F)(F)F)cc1)N1C[C@H](C)N(c2nc(=O)n(C)c3ccc(C#N)nc23)C[C@H]1CC (single isomer, unassigned) [Example 336] | 20000 | 1100 | 480 |
| CCC(c1ccc(OCC2(C)CC2)cc1)N1C[C@H](C)N(c2nc(=O)n(C)c3ccc(C#N)nc23)C[C@H]1CC (stereo partly drawn) [Example 345, 4-((2S,5R)-5-ethyl-2-methyl-4-(1-(4-((1-methylcyclopropyl)methoxy)phenyl)propyl)piperazin-1-yl)-1-methyl-2-oxo-1,2-dihydropyrido[3,2-d]pyrimidine-6-carbonitrile] | 1740 | 95 | 49 |
| C[C@@H]1CN(c2nc(=O)n(C)c3ccc(C#N)nc23)[C@@H](C)CN1C(c1ccc(F)cc1)C12CC(C(F)(F)F)(C1)C2 (stereo partly drawn) [Example 450, 4-((2S,5R)-4-((4-fluorophenyl)(3-(trifluoromethyl)bicyclo[1.1.1]pentan-1-yl)methyl)-2,5-dimethylpiperazin-1-yl)-1-methyl-2-oxo-1,2-dihydropyrido[3,2-d]pyrimidine-6-carbonitrile] | 20000 | 370 | 200 |
| CC[C@@H]1CN(c2nc(=O)n(C)c3ccc(C#N)nc23)[C@@H](C)CN1C(C)c1ccc(C(F)(F)F)c(C#N)c1 (single isomer, unassigned) [Example 357] | 3780 | 1560 | 2080 |
| CCC(c1ccc(F)c(F)c1)N1C[C@H](C)N(c2nc(=O)n(C)c3ccc(C#N)nc23)C[C@H]1CC (stereo partly drawn) [Example 320, 4-((2S,5R)-4-(1-(3,4-difluorophenyl)propyl)-5-ethyl-2-methylpiperazin-1-yl)-1-methyl-2-oxo-1,2-dihydropyrido[3,2-d]pyrimidine-6-carbonitrile] | 930 | 620 | 420 |
| CC[C@@H]1CN(c2nc(=O)n(C)c3ccc(C#N)nc23)[C@@H](C)CN1C(c1ccc(OC(C)C)cc1)C(C)C (stereo partly drawn) [Example 324, 4-((2S,5R)-5-ethyl-4-(1-(4-isopropoxyphenyl)-2-methylpropyl)-2-methylpiperazin-1-yl)-1-methyl-2-oxo-1,2-dihydropyrido[3,2-d]pyrimidine-6-carbonitrile] | 4210 | 200 | 850 |
| CCC(c1ccc(C(F)(F)F)cc1)N1C[C@H](CC)N(c2nc(=O)[nH]c3ccc(C#N)nc23)C[C@H]1CC (stereo partly drawn) [Example 416, 4-((2S,5R)-2,5-diethyl-4-(1-(4-(trifluoromethyl)phenyl)propyl)piperazin-1-yl)-2-oxo-1,2-dihydropyrido[3,2-d]pyrimidine-6-carbonitrile] | 3140 | 740 | 140 |
| CCOC[C@@H]1CN(c2nc(=O)n(C)c3ccc(C#N)nc23)[C@@H](C)CN1C(CC)c1ccc(C(F)(F)F)cc1 (stereo partly drawn) [Example 400, 4-((2S,5S)-5-(ethoxymethyl)-2-methyl-4-(1-(4-(trifluoromethyl)phenyl)propyl)piperazin-1-yl)-1-methyl-2-oxo-1,2-dihydropyrido[3,2-d]pyrimidine-6-carbonitrile] | 20000 | 47 | 750 |
| CCC(N1C[C@H](C)N(c2nc(=O)n(C)c3ccc(C#N)nc23)C[C@H]1C)C12CC(C(F)(F)F)(C1)C2 (single isomer, unassigned) [Example 449] | 20000 | 4080 | 7410 |
| CC[C@H]1CN(C(C)c2ccc(C(F)(F)F)cc2)[C@H](CC)CN1c1nc(=O)n(C)c2ccc(C(F)F)nc12 (stereo partly drawn) [Example 440, 4-((2S,5R)-2,5-Diethyl-4-(1-(4-(trifluoromethyl)phenyl)ethyl)piperazin-1-yl)-6-(difluoromethyl)-1-methylpyrido[3,2-d]pyrimidin-2(1H)-one] | 8070 | 44600 | 1140 |
| CCC(c1ccc(C(C)(C)C#N)cc1)N1C[C@H](C)N(c2nc(=O)n(C)c3ccc(C#N)nc23)C[C@H]1CC (stereo partly drawn) [Example 318, 4-((2S,5R)-4-(1-(4-(2-cyanopropan-2-yl)phenyl)propyl)-5-ethyl-2-methylpiperazin-1-yl)-1-methyl-2-oxo-1,2-dihydropyrido[3,2-d]pyrimidine-6-carbonitrile] | 3070 | 1570 | 620 |
| CCC(c1c(F)cc(OCC2CC2)cc1F)N1C[C@H](C)N(c2nc(=O)n(C)c3ccc(C#N)nc23)C[C@H]1CC (stereo partly drawn) [Example 328, 4-((2S,5R)-4-(1-(4-(cyclopropylmethoxy)-2,6-difluorophenyl)propyl)-5-ethyl-2-methylpiperazin-1-yl)-1-methyl-2-oxo-1,2-dihydropyrido[3,2-d]pyrimidine-6-carbonitrile] | 20000 | 2230 | 2970 |
| CC[C@@H]1CN(c2nc(=O)n(C)c3ccc(C#N)nc23)[C@@H](CO)CN1C(C)c1ccc(C(F)(F)F)cc1 (single isomer, unassigned) [Example 412] | 670 | 45000 | 9670 |
| CC[C@@H]1CN(c2nc(=O)n(C)c3ccc(C#N)nc23)[C@@H](C)CN1C(C)c1ccc(C(F)(F)F)c(C#N)c1 (single isomer, unassigned) [Example 356] | 930 | 440 | 18000 |
| CCC(N1C[C@H](C)N(c2nc(=O)n(C)c3ccc(C#N)nc23)C[C@H]1C)C12CC(C(F)(F)F)(C1)C2 (single isomer, unassigned) [Example 448] | 20000 | 5140 | 13400 |
| CCC(c1nc(C2CC2)no1)N1C[C@H](CC)N(c2nc(=O)n(C)c3ccc(C#N)nc23)C[C@H]1CC (stereo partly drawn) [Example 364, 4-((2S,5R)-4-(1-(3-cyclopropyl-1,2,4-oxadiazol-5-yl)propyl)-2,5-diethylpiperazin-1-yl)-1-methyl-2-oxo-1,2-dihydropyrido[3,2-d]pyrimidine-6-carbonitrile] | 1800 | 330 | 53 |

Next, values leading:

| EC50 [1] [nM] | IC50 [2] [nM] | IC50 [3] [nM] | Compound |
| --- | --- | --- | --- |
| 180 | 26 | 17 | CCC(c1ccc(C(C)(C)C#N)cc1)N1C[C@H](C)N(c2nc(=O)n(C)c3ccc(C#N)nc23)C[C@H]1CC (stereo partly drawn) [Example 317, 4-((2S,5R)-4-(1-(4-(2-cyanopropan-2-yl)phenyl)propyl)-5-ethyl-2-methylpiperazin-1-yl)-1-methyl-2-oxo-1,2-dihydropyrido[3,2-d]pyrimidine-6-carbonitrile] |
| 370 | 8220 | 1000 | CC(c1ccc(CN2C[C@@H](C)O[C@@H](C)C2)cc1)N1C[C@H](C)N(c2nc(=O)n(C)c3ccc(C#N)nc23)C[C@H]1C (stereo partly drawn) [Example 389, 4-((2S,5R)-4-(1-(4-(((2S,6R)-2,6-dimethylmorpholino)methyl)phenyl)ethyl)-2,5-dimethylpiperazin-1-yl)-1-methyl-2-oxo-1,2-dihydropyrido[3,2-d]pyrimidine-6-carbonitrile] |
| 160 | 11300 | 1490 | CC[C@@H]1CN(c2nc(=O)[nH]c3ccc(C#N)nc23)[C@@H](C)CN1C(C)c1ccc(C(F)(F)F)cc1 (single isomer, unassigned) [Example 414] |
| 380 | 1040 | 180 | CCC1CN(c2nc(=O)n(C)c3ccc(C#N)nc23)[C@@H](C)CN1C(C)c1ccc(C(F)(F)F)c(CN2CCOCC2)c1 (single isomer, unassigned) [Example 351] |
| 73 | 6330 | 740 | CCC(c1ccc(OCC2CN(C)C2)cc1)N1C[C@H](C)N(c2nc(=O)n(C)c3ccc(C#N)nc23)C[C@H]1CC (stereo partly drawn) [Example 343, 4-((2 S, 5R)-5-ethyl-2-methyl-4-(1-(4-((1-methylazetidin-3-yl)methoxy)phenyl)propyl)piperazin-1-yl)-1-methyl-2-oxo-1,2-dihydropyrido[3,2-d]pyrimidine-6-carbonitrile] |
| 190 | 1240 | 1280 | CCC(c1ccc(OCC2(C)CC2)cc1)N1C[C@H](C)N(c2nc(=O)n(C)c3ccc(C#N)nc23)C[C@H]1CC (stereo partly drawn) [Example 346, 4-((2S,5R)-5-ethyl-2-methyl-4-(1-(4-((1-methylcyclopropyl)methoxy)phenyl)propyl)piperazin-1-yl)-1-methyl-2-oxo-1,2-dihydropyrido[3,2-d]pyrimidine-6-carbonitrile] |
| 57 | 650 | 230 | CC[C@@H]1CN(c2nc(=O)n(C)c3ccc(C#N)nc23)[C@@H](C)CN1C(c1ccc(OC)cc1)C(C)C (stereo partly drawn) [Example 313, 4-((2S,5R)-5-ethyl-4-(1-(4-methoxyphenyl)-2-methylpropyl)-2-methylpiperazin-1-yl)-1-methyl-2-oxo-1,2-dihydropyrido[3,2-d]pyrimidine-6-carbonitrile] |
| 130 | 22 | 52 | CCC(c1ccc(F)c(F)c1)N1C[C@H](C)N(c2nc(=O)n(C)c3ccc(C#N)nc23)C[C@H]1CC (stereo partly drawn) [Example 319, 4-((2S,5R)-4-(1-(3,4-difluorophenyl)propyl)-5-ethyl-2-methylpiperazin-1-yl)-1-methyl-2-oxo-1,2-dihydropyrido[3,2-d]pyrimidine-6-carbonitrile] |
| 670 | 21 | 520 | CC[C@@H]1CN(c2nc(=O)n(C)c3ccc(C#N)nc23)[C@@H](C)CN1C(c1ccc(OC(C)C)cc1)C(C)C (stereo partly drawn) [Example 323, 4-((2S,5R)-5-ethyl-4-(1-(4-isopropoxyphenyl)-2-methylpropyl)-2-methylpiperazin-1-yl)-1-methyl-2-oxo-1,2-dihydropyrido[3,2-d]pyrimidine-6-carbonitrile] |
